Values belong to the compound of their own block, whether it stands above or below them.
How the values were obtained:
[1] = test system: PC3 cells; test: NAMPT Cell Proliferation Assay (Cell Titer Glo); assay type: cell-based; settings: Homo sapiens, PC-3, 120 h, incubated 5 days, cell viability
Description: NAMPT Cell Proliferation Assay
PC3 cells were seeded in 96-well black plates (Corning #3904) at 500 cells/well in 90 µl of RPMI media containing 10% heat-inactivated FBS and incubated overnight at 37° C. and 5% CO2 to allow cells to attach to wells. The following day, test compounds were serially diluted in neat DMSO to 1000× final concentrations prior to dilution with RPMI media to 10× and 1% DMSO. Ten L of the 10× compounds were then transferred to wells containing cells to produce a dose response of 10-fold dilutions from […]. Cells were incubated for 5 days at 37° C. and 5% CO2, then cell viability was measured using Cell Titer Glo reagent (Promega #G7571). Percent inhibition values were calculated and fitted to a sigmoidal dose response curves using Assay Explorer software to determine IC50s.

[2] = molecular target: NAMPT (Homo sapiens, UniProt P43490); test: Time-Resolved Fluorescence Resonance Energy Transfer (TR-FRET) Binding Assay of NAMPT; settings: 6.8 nM NAMPT, 200 nM probe, equilibrated 3 hours, no substrates
Description: Determination of the utility of compounds having Formula (I) as binders to and inhibitors of NAMPT was performed using Time-Resolved Fluorescence Resonance Energy Transfer (TR-FRET) binding assays.
Time-Resolved Fluorescence Resonance Energy Transfer (TR-FRET) Binding Assay of NAMPT
Six L were transferred to 384-well low-volume plates ([…] #3673). To this, 12 L of a 1.5× solution containing enzyme, probe and antibody were added. […] Reactions were equilibrated at room temperature for 3 hours prior to reading on an Envision multi-label plate reader (Perkin Elmer; Ex=337 nm, Em=520 and 495 nm). Time-resolved FRET ratios (Em520/Em495) were normalized to controls, plotted as a function of compound concentration and fit with the four-parameter logistic equation to determine IC50s.

Sequence of NAMPT (P43490 whole entry): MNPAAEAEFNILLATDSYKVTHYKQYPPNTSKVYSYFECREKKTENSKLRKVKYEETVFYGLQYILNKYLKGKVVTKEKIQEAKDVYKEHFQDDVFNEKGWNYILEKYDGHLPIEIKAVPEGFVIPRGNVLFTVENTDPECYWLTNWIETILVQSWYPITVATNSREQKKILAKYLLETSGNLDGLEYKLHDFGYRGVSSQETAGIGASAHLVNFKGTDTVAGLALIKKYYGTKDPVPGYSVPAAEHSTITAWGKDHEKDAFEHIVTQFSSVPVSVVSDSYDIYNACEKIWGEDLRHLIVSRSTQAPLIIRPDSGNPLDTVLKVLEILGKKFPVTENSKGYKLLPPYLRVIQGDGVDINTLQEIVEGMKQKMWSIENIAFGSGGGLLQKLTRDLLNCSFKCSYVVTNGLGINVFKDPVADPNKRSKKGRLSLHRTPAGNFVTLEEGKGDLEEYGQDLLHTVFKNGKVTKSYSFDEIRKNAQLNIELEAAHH

Compound: O=C(Nc1ccc(C2CCN(C(=O)c3ccccc3)CC2)cc1)N1CC(c2cccnn2)C1 [Example 336, N-[4-(1-benzoylpiperidin-4-yl)phenyl]-3-(pyridazin-3-yl)azetidine-1-carboxamide]
IC50 [1]: 222 nM

Compound: O=C(Nc1ccc(C2CCN(C(=O)c3ccccc3F)CC2)cc1)N1CC(c2cccnn2)C1 [Example 337, N-{4-[1-(2-fluorobenzoyl)piperidin-4-yl]phenyl}-3-(pyridazin-3-yl)azetidine-1-carboxamide]
IC50 [1]: 55.5 nM

Compound: Cc1ccccc1C(=O)N1CCC(c2ccc(NC(=O)N3CC(c4cccnn4)C3)cc2)CC1 [Example 338, N-{4-[1-(2-methylbenzoyl)piperidin-4-yl]phenyl}-3-(pyridazin-3-yl)azetidine-1-carboxamide]
IC50 [1]: 587 nM

Compound: CC(C)(C)C(=O)N1CCC(c2ccc(NC(=O)N3CC(c4cccnn4)C3)cc2)CC1 [Example 339, N-{4-[1-(2,2-dimethylpropanoyl)piperidin-4-yl]phenyl}-3-(pyridazin-3-yl)azetidine-1-carboxamide]
IC50 [1]: 668 nM

Compound: CC(C)(C)CC(=O)N1CCC(c2ccc(NC(=O)N3CC(c4cccnn4)C3)cc2)CC1 [Example 342, N-{4-[1-(3,3-dimethylbutanoyl)piperidin-4-yl]phenyl}-3-(pyridazin-3-yl)azetidine-1-carboxamide]
IC50 [1]: 390 nM

Compound: O=C(CCC(F)(F)F)N1CCC(c2ccc(NC(=O)N3CC(c4cccnn4)C3)cc2)CC1 [Example 344, 3-(pyridazin-3-yl)-N-{4-[1-(4,4,4-trifluorobutanoyl)piperidin-4-yl]phenyl}azetidine-1-carboxamide]
IC50 [1]: 7670 nM

Compound: O=C(CC(F)(F)F)N1CCC(c2ccc(NC(=O)N3CC(c4cccnn4)C3)cc2)CC1 [Example 345, 3-(pyridazin-3-yl)-N-{4-[1-(3,3,3-trifluoropropanoyl)piperidin-4-yl]phenyl}azetidine-1-carboxamide]
IC50 [1]: 1130 nM

Other lines, results leading:

IC50 [1]: 13.8 nM
Compound: O=C(Nc1ccc(C2CCN(C(=O)C3CCOC3)CC2)cc1)N1CC(c2cccnc2)C1 (stereo not drawn) [Example 53, 3-(pyridin-3-yl)-N-{4-[1-(tetrahydrofuran-3-ylcarbonyl)piperidin-4-yl]phenyl}azetidine-1-carboxamide]

IC50 [1]: 74.5 nM
Compound: O=C(Nc1ccc(C2CCN(C(=O)[C@H]3CCOC3)CC2)cc1)N1CC(c2cccnc2)C1 [Example 159, 3-(pyridin-3-yl)-N-(4-{1-[(3S)-tetrahydrofuran-3-ylcarbonyl]piperidin-4-yl}phenyl)azetidine-1-carboxamide]

IC50 [1]: 639 nM
Compound: O=C(Nc1ccc(C2CCN(C(=O)[C@H]3CCOC3)CC2)cc1)N1CC(c2cnccc2Cl)C1 [Example 160, 3-(4-chloropyridin-3-yl)-N-(4-{1-[(3S)-tetrahydrofuran-3-ylcarbonyl]piperidin-4-yl}phenyl)azetidine-1-carboxamide]

IC50 [2]: 830 nM
Compound: O=C(Nc1ccc(C2CN(CC3CCOC3)C2)cc1)N1CC(c2cccnc2)C1 (stereo not drawn) [Example 256, 3-(pyridin-3-yl)-N-{4-[1-(tetrahydrofuran-3-ylmethyl)azetidin-3-yl]phenyl}azetidine-1-carboxamide]

IC50 [1]: 2450 nM
Compound: O=C(Nc1ccc(C2CCN(C(=O)C3CC3)CC2)cc1)N1CC(c2cccnn2)C1 [Example 340, N-{4-[1-(cyclopropylcarbonyl)piperidin-4-yl]phenyl}-3-(pyridazin-3-yl)azetidine-1-carboxamide]

IC50 [1]: 8940 nM
Compound: CC(=O)N1CCC(c2ccc(NC(=O)N3CC(c4cccnn4)C3)cc2)CC1 [Example 341, N-[4-(1-acetylpiperidin-4-yl)phenyl]-3-(pyridazin-3-yl)azetidine-1-carboxamide]

IC50 [1]: 831 nM
Compound: O=C(Nc1ccc(C2CCN(C(=O)C3CCC3)CC2)cc1)N1CC(c2cccnn2)C1 [Example 343, N-{4-[1-(cyclobutylcarbonyl)piperidin-4-yl]phenyl}-3-(pyridazin-3-yl)azetidine-1-carboxamide]

IC50 [1]: 843 nM
Compound: CC1(C(=O)N2CCC(c3ccc(NC(=O)N4CC(c5cccnn5)C4)cc3)CC2)CC1 [Example 346, N-(4-{1-[(1-methylcyclopropyl)carbonyl]piperidin-4-yl}phenyl)-3-(pyridazin-3-yl)azetidine-1-carboxamide]

Source: US9296723B2, “NAMPT inhibitors” (AbbVie Inc., priority 2012, dated 2016)
